PubChem BioAssay AID1963965 (Molecular Pharmacology Branch, DTP, NCI, 2024)

System: 996289-038-R-J1-PDC spheroid viability
Experiment: Anticancer human tumor 996289-038-R-J1-PDC patient-derived colon adenocarcinoma cell line growth inhibition [PI3K]
Conditions: spheroids with HUVEC and MSC; for IC50: curve of first compound; for viability, T/C: stronger effect = lower value
How it was run: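 Viability of mixed-cell spheroids was determined after exposure to pairwise combinations, one partner being inavolisib, alpelisib, duvelisib or copanlisib. Highest tested concentration matched clinical Cmax where known and 10 microM where not, descending in half-log steps.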

[1] = second compound 0.0316 µM, first compound 0.0316 µM
[2] = second compound 0.0316 µM, first compound 0.1 µM
[3] = second compound 0.0316 µM, first compound 0.316 µM
[4] = second compound 0.0316 µM, first compound 1 µM
[5] = second compound 0.0316 µM, first compound 3.16 µM
[6] = second compound 0.0316 µM, first compound 10 µM
[7] = second compound 0.1 µM, first compound 0.0316 µM
[8] = second compound 0.1 µM, first compound 0.1 µM
[9] = second compound 0.1 µM, first compound 0.316 µM
[10] = second compound 0.1 µM, first compound 1 µM
[11] = second compound 0.1 µM, first compound 3.16 µM
[12] = second compound 0.1 µM, first compound 10 µM
[13] = second compound 0.316 µM, first compound 0.0316 µM
[14] = second compound 0.316 µM, first compound 0.1 µM
[15] = second compound 0.316 µM, first compound 0.316 µM
[16] = second compound 0.316 µM, first compound 1 µM
[17] = second compound 0.316 µM, first compound 3.16 µM
[18] = second compound 0.316 µM, first compound 10 µM
[19] = second compound 1 µM, first compound 0.0316 µM
[20] = second compound 1 µM, first compound 0.1 µM
[21] = second compound 1 µM, first compound 0.316 µM
[22] = second compound 1 µM, first compound 1 µM
[23] = second compound 1 µM, first compound 3.16 µM
[24] = second compound 1 µM, first compound 10 µM
[25] = second compound 3.16 µM, first compound 0.0316 µM
[26] = second compound 3.16 µM, first compound 0.1 µM
[27] = second compound 3.16 µM, first compound 0.316 µM
[28] = second compound 3.16 µM, first compound 1 µM
[29] = second compound 3.16 µM, first compound 3.16 µM
[30] = second compound 3.16 µM, first compound 10 µM
[31] = second compound 10 µM, first compound 0.0316 µM
[32] = second compound 10 µM, first compound 0.1 µM
[33] = second compound 10 µM, first compound 0.316 µM
[34] = second compound 10 µM, first compound 1 µM
[35] = second compound 10 µM, first compound 3.16 µM
[36] = second compound 10 µM, first compound 10 µM
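Also: spheroids exposed to compounds for seven days before viability read.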
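For viability, T/C in this document: luminescence used as a proxy for viable cell amount; percent viability relative to DMSO vehicle control as 100%.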

## C#Cc1c(F)ccc2cc(O)cc(-c3ncc4c(N5CC6CCC(C5)N6)nc(OCC56CCCN5CC(F)C6)nc4c3F)c12 (stereo not given) + CC(Nc1ncnc2nc[nH]c12)c1cc2cccc(Cl)c2c(=O)n1-c1ccccc1
Second compound 0.0316 µM
  IC50: 1.16 µM
Second compound 0.1 µM
  IC50: 1.51 µM
Second compound 0.316 µM
  IC50: 1.43 µM
Second compound 1 µM
  IC50: 1.04 µM
Second compound 3.16 µM
  IC50: 0.681 µM
Second compound 10 µM
  IC50: 0.372 µM
[1]
  viability, T/C: 101%
[2]
  viability, T/C: 96.6%
[3]
  viability, T/C: 69.7%
[4]
  viability, T/C: 52%
[5]
  viability, T/C: 45.6%
[6]
  viability, T/C: 37.2%
[7]
  viability, T/C: 90.4%
[8]
  viability, T/C: 76.2%
[9]
  viability, T/C: 60.6%
[10]
  viability, T/C: 55.3%
[11]
  viability, T/C: 46.8%
[12]
  viability, T/C: 33%
[13]
  viability, T/C: 95.9%
[14]
  viability, T/C: 81.8%
[15]
  viability, T/C: 71.2%
[16]
  viability, T/C: 54%
[17]
  viability, T/C: 40%
[18]
  viability, T/C: 33.7%
[19]
  viability, T/C: 99.3%
[20]
  viability, T/C: 79%
[21]
  viability, T/C: 59.8%
[22]
  viability, T/C: 57.5%
[23]
  viability, T/C: 35.6%
[24]
  viability, T/C: 32.8%
[25]
  viability, T/C: 92.3%
[26]
  viability, T/C: 81.6%
[27]
  viability, T/C: 63.2%
[28]
  viability, T/C: 42.6%
[29]
  viability, T/C: 34.1%
[30]
  viability, T/C: 27.6%
[31]
  viability, T/C: 78.9%
[32]
  viability, T/C: 74%
[33]
  viability, T/C: 47.8%
[34]
  viability, T/C: 37.9%
[35]
  viability, T/C: 29.5%
[36]
  viability, T/C: 20.9%

## C=CC(=O)N1CCN(c2nc(=O)n(-c3c(C)ccnc3C(C)C)c3nc(-c4c(O)cccc4F)c(F)cc23)C(C)C1 (stereo not given) + CC(Nc1ncnc2nc[nH]c12)c1cc2cccc(Cl)c2c(=O)n1-c1ccccc1
Second compound 0.0316 µM
  IC50: > 10 µM
Second compound 0.1 µM
  IC50: > 10 µM
Second compound 0.316 µM
  IC50: > 10 µM
Second compound 1 µM
  IC50: > 10 µM
Second compound 3.16 µM
  IC50: > 10 µM
Second compound 10 µM
  IC50: > 10 µM
[1]
  viability, T/C: 101%
[2]
  viability, T/C: 97.8%
[3]
  viability, T/C: 91.2%
[4]
  viability, T/C: 100%
[5]
  viability, T/C: 107%
[6]
  viability, T/C: 106%
[7]
  viability, T/C: 113%
[8]
  viability, T/C: 93.1%
[9]
  viability, T/C: 98.1%
[10]
  viability, T/C: 106%
[11]
  viability, T/C: 120%
[12]
  viability, T/C: 97%
[13]
  viability, T/C: 95.1%
[14]
  viability, T/C: 106%
[15]
  viability, T/C: 107%
[16]
  viability, T/C: 107%
[17]
  viability, T/C: 105%
[18]
  viability, T/C: 105%
[19]
  viability, T/C: 93.8%
[20]
  viability, T/C: 88.3%
[21]
  viability, T/C: 101%
[22]
  viability, T/C: 98.6%
[23]
  viability, T/C: 112%
[24]
  viability, T/C: 99.6%
[25]
  viability, T/C: 97.2%
[26]
  viability, T/C: 101%
[27]
  viability, T/C: 88.3%
[28]
  viability, T/C: 101%
[29]
  viability, T/C: 118%
[30]
  viability, T/C: 107%
[31]
  viability, T/C: 103%
[32]
  viability, T/C: 88.4%
[33]
  viability, T/C: 90.7%
[34]
  viability, T/C: 97.9%
[35]
  viability, T/C: 105%
[36]
  viability, T/C: 95.9%

## CC(Cn1ccc(-c2ccc(C#N)c(Cl)c2)n1)NC(=O)c1cc(C(C)O)[nH]n1 (stereo not given) + CC(Nc1ncnc2nc[nH]c12)c1cc2cccc(Cl)c2c(=O)n1-c1ccccc1
Second compound 0.0316 µM
  IC50: > 10 µM
Second compound 0.1 µM
  IC50: > 10 µM
Second compound 0.316 µM
  IC50: > 10 µM
Second compound 1 µM
  IC50: > 10 µM
Second compound 3.16 µM
  IC50: > 10 µM
Second compound 10 µM
  IC50: > 10 µM
[1]
  viability, T/C: 109%
[2]
  viability, T/C: 89.9%
[3]
  viability, T/C: 108%
[4]
  viability, T/C: 110%
[5]
  viability, T/C: 106%
[6]
  viability, T/C: 101%
[7]
  viability, T/C: 95.2%
[8]
  viability, T/C: 97.3%
[9]
  viability, T/C: 102%
[10]
  viability, T/C: 101%
[11]
  viability, T/C: 110%
[12]
  viability, T/C: 91.5%
[13]
  viability, T/C: 105%
[14]
  viability, T/C: 99.2%
[15]
  viability, T/C: 105%
[16]
  viability, T/C: 93.9%
[17]
  viability, T/C: 113%
[18]
  viability, T/C: 91.3%
[19]
  viability, T/C: 95.7%
[20]
  viability, T/C: 96.2%
[21]
  viability, T/C: 97.3%
[22]
  viability, T/C: 99.3%
[23]
  viability, T/C: 102%
[24]
  viability, T/C: 106%
[25]
  viability, T/C: 91.6%
[26]
  viability, T/C: 92.7%
[27]
  viability, T/C: 96.7%
[28]
  viability, T/C: 90.6%
[29]
  viability, T/C: 91.9%
[30]
  viability, T/C: 84.7%
[31]
  viability, T/C: 80.2%
[32]
  viability, T/C: 81.8%
[33]
  viability, T/C: 84.6%
[34]
  viability, T/C: 91.5%
[35]
  viability, T/C: 100%
[36]
  viability, T/C: 89.8%

## Cn1ncc(Cl)c1-c1cc(C(=O)NC(CN)Cc2cccc(F)c2)sc1Cl (stereo not given) + CC(Nc1ncnc2nc[nH]c12)c1cc2cccc(Cl)c2c(=O)n1-c1ccccc1
Second compound 0.0316 µM
  IC50: > 10 µM
Second compound 0.1 µM
  IC50: > 10 µM
Second compound 0.316 µM
  IC50: > 10 µM
Second compound 1 µM
  IC50: 9.38 µM
Second compound 3.16 µM
  IC50: 7.97 µM
Second compound 10 µM
  IC50: 5.1 µM
[1]
  viability, T/C: 92.2%
[2]
  viability, T/C: 92.1%
[3]
  viability, T/C: 81.2%
[4]
  viability, T/C: 71.6%
[5]
  viability, T/C: 70.6%
[6]
  viability, T/C: 61.2%
[7]
  viability, T/C: 102%
[8]
  viability, T/C: 88.5%
[9]
  viability, T/C: 83.5%
[10]
  viability, T/C: 73.9%
[11]
  viability, T/C: 69.1%
[12]
  viability, T/C: 54.2%
[13]
  viability, T/C: 102%
[14]
  viability, T/C: 98.8%
[15]
  viability, T/C: 85.2%
[16]
  viability, T/C: 73.3%
[17]
  viability, T/C: 69.7%
[18]
  viability, T/C: 49.3%
[19]
  viability, T/C: 108%
[20]
  viability, T/C: 97.5%
[21]
  viability, T/C: 90.2%
[22]
  viability, T/C: 91.7%
[23]
  viability, T/C: 71.2%
[24]
  viability, T/C: 48.3%
[25]
  viability, T/C: 85.6%
[26]
  viability, T/C: 94%
[27]
  viability, T/C: 88.6%
[28]
  viability, T/C: 85%
[29]
  viability, T/C: 67.6%
[30]
  viability, T/C: 45.7%
[31]
  viability, T/C: 84.1%
[32]
  viability, T/C: 91.2%
[33]
  viability, T/C: 92%
[34]
  viability, T/C: 79%
[35]
  viability, T/C: 58.1%
[36]
  viability, T/C: 39.2%

## Cn1nccc1Nc1nccc(-c2ccn(C(CO)c3ccc(Cl)c(F)c3)c(=O)c2)n1 (stereo not given) + CC(Nc1ncnc2nc[nH]c12)c1cc2cccc(Cl)c2c(=O)n1-c1ccccc1
Second compound 0.0316 µM
  IC50: > 10 µM
Second compound 0.1 µM
  IC50: > 10 µM
Second compound 0.316 µM
  IC50: > 10 µM
Second compound 1 µM
  IC50: 8.64 µM
Second compound 3.16 µM
  IC50: > 10 µM
Second compound 10 µM
  IC50: 7.53 µM
[1]
  viability, T/C: 86.6%
[2]
  viability, T/C: 97.5%
[3]
  viability, T/C: 95.5%
[4]
  viability, T/C: 90.1%
[5]
  viability, T/C: 84.6%
[6]
  viability, T/C: 61.5%
[7]
  viability, T/C: 108%
[8]
  viability, T/C: 89.4%
[9]
  viability, T/C: 120%
[10]
  viability, T/C: 92.8%
[11]
  viability, T/C: 81.7%
[12]
  viability, T/C: 53.1%
[13]
  viability, T/C: 105%
[14]
  viability, T/C: 90.8%
[15]
  viability, T/C: 105%
[16]
  viability, T/C: 93.3%
[17]
  viability, T/C: 79.6%
[18]
  viability, T/C: 55.6%
[19]
  viability, T/C: 91.7%
[20]
  viability, T/C: 101%
[21]
  viability, T/C: 87.9%
[22]
  viability, T/C: 94.4%
[23]
  viability, T/C: 76.9%
[24]
  viability, T/C: 46.1%
[25]
  viability, T/C: 88.1%
[26]
  viability, T/C: 87.2%
[27]
  viability, T/C: 99.7%
[28]
  viability, T/C: 86.1%
[29]
  viability, T/C: 70.3%
[30]
  viability, T/C: 57.1%
[31]
  viability, T/C: 82.7%
[32]
  viability, T/C: 88.5%
[33]
  viability, T/C: 91.1%
[34]
  viability, T/C: 81.7%
[35]
  viability, T/C: 70.8%
[36]
  viability, T/C: 43.3%
